18 compounds from patent US20250122169A1, “PPARG INVERSE AGONISTS AND USES THEREOF” (Flare Therapeutics Inc., priority 2021, published 2025) can be followed below.

What is called EC50 is the concentration at which the effect is half-maximal. As usually defined, the inhibition is the percentage by which the read-out fell short of the control.

For test [1], the target named is T1, PPARG/RXRA LBD heterodimer (Homo sapiens, UniProt P37231).
T1 construct: His-TEV-Q203-Y477; Uniprot ID P37231-2; made in house; host or cells: E. coli
T1 sequence (P37231 203-477 isoform P37231-2): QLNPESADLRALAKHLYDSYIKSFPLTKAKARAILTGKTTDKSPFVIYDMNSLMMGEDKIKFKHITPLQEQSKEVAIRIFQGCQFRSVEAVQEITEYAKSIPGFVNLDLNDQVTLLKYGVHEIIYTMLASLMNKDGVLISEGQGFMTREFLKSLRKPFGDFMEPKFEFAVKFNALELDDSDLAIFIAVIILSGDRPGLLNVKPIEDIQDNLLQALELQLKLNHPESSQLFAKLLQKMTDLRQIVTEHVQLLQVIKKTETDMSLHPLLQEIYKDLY
T1 sequence (P19793 228-462 partner limits assumed): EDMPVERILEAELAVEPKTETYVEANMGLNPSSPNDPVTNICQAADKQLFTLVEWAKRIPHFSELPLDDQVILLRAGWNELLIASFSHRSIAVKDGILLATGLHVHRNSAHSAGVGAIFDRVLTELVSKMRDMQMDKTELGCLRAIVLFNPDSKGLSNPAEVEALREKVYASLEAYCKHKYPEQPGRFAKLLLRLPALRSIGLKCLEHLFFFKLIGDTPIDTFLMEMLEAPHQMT
Kind of test: PPARγ-MED1 blockade assay (TR-FRET). It is filed as biochemical. To be noted: for EC50: TR-FRET, MED1 LxxLL peptide, 80 nM Rosiglitazone, 3 hours; for Emax: maximal extent, GW9662 defined as 100%, DMSO 0%, read-out: % MED1 blockade relative to GW9662. How it is done: Compound potency (IC50) and maximal extent of MED1 repulsion to PPARG were assessed a TR-FRET binding assay measuring association of a biotinylated MED1 LxxLL peptide (Biotin-[…]-amide) to PPARG/RXRA LBD heterodimer.
In general terms: In TR-FRET formats the signal depends on donor and acceptor labels being close together.

Test [2] deals with T2, PPARG/RXRA LBD heterodimer (Homo sapiens, UniProt P37231).
T2 construct: 2 nM WT PPARG LBD (E. coli expressed, His-TEV-Q203-Y477); fused on or other part: N-terminal His tag with TEV site on the PPARG LBD
Kind of test: PPARγ-NCOR1 recruitment assay (TR-FRET). It is filed as biochemical. The note with it: for Emax: 3 h, maximal extent, T0070907 defined as 100%, DMSO 0%, read-out: % NCOR recruitment relative to T907; for EC50: TR-FRET, NCOR1 ID2 peptide, 80 nM Rosiglitazone, 3 hours, read-out: PPARG-NCOR recruitment assay EC50. The method, then:
Compound potency (EC50) and maximal extent of NCOR1 recruitment to PPARG were assessed a TR-FRET binding assay measuring association of a biotinylated NCOR1 ID2 peptide (Biotin-[…]-amide) to PPARG/RXRA LBD heterodimer.
T2 sequence (O75376 2251-2273 limits assumed, one chain of several, further chain): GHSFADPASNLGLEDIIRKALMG

Test [3] deals with ANGPTL4, a PPARG target gene, in HT1197 (RXRA S427F mutation) cells. Kind of test: Bladder cancer pharmacodynamic assay, HT1197 cell assay (qPCR of PPARG target gene ANGPTL4). It counts as cell-based. To be noted: Homo sapiens; for inhibition at 0.1 µM: read-out: % inhibition of ANGPTL4 @ 100 nM, 100 nM compound, 24 hours, relative to DMSO control; for EC50: 24 hours treatment, qPCR. The method, then: Quantitative PCR was performed using an ABI QuantStudio 7 Flex Reaction system. Data were analyzed and reported relative to DMSO control using the comparative Ct method (ΔΔCt).
On the technique in general: In qPCR the cycle at which signal appears reflects the starting amount.

As for `CN(C)C(=O)N1CCN(c2c(F)cc3[nH]c(-c4cc(C#N)ncc4Cl)cc(=O)c3c2F)CC1` [Example 21, 4-(2-(5-chloro-2-cyanopyridin-4-yl)-5,7-difluoro-4-oxo-1,4-dihydroquinolin-6-yl)-N,N-dimethylpiperazine-1-carboxamide], in test [1], the EC50 is less than 10 nM and the Emax was more than 100%. Also, in test [2], the Emax is more than 100% and the EC50 is less than 10 nM. For the same compound, the inhibition at 0.1 µM in test [3] came out at 81%.

In the case of `CN1CCN(c2c(F)cc3[nH]c(-c4cc(C#N)ncc4Cl)cc(=O)c3c2F)CC1` [Example 15, 5-chloro-4-(5,7-difluoro-6-(4-methylpiperazin-1-yl)-4-oxo-1,4-dihydroquinolin-2-yl)picolinonitrile], the EC50 was 10 to 100 nM in test [1], 10 to 100 nM in test [2] and 3.1 nM in test [3]. Also, the Emax in test [1] and in test [2] was more than 100% in each case. Moreover, the inhibition at 0.1 µM in test [3] amounted to 81%.

Consider `N#Cc1cc(-c2cc(=O)c3c(F)cc(F)cc3[nH]2)c(Cl)cn1` [Example 2, 5-chloro-4-(5,7-difluoro-4-oxo-1,4-dihydroquinolin-2-yl)picolinonitrile], for which, in test [1], the concentration giving a half-maximal response (EC50) is less than 10 nM and the Emax is more than 100%. Further, in test [2], the Emax is more than 100% and the EC50 was less than 10 nM. Besides, in test [3], a half-maximal response (EC50) required 0.14 nM and the inhibition at 0.1 µM is 91%.

For the compound `COc1cnc(C#N)cc1-c1cc(=O)c2c(F)cc(F)cc2[nH]1` [Example 9, 4-(5,7-difluoro-4-oxo-1,4-dihydroquinolin-2-yl)-5-methoxypicolinonitrile], in test [1], the EC50 lay in the range of 100 to 1000 nM and the Emax is more than 100%. In test [2], the Emax is less than 100% and the EC50 lay in the range of 100 to 1000 nM. In addition, in test [3], the inhibition at 0.1 µM turned out to be 22%.

In the case of `N#Cc1ccc(Cl)c(-c2cc(=O)c3ccc(Cl)cc3[nH]2)n1` [Example 6, 5-chloro-6-(7-chloro-4-oxo-1,4-dihydroquinolin-2-yl)picolinonitrile], the EC50 in test [1] and in test [2] was less than 10 nM in each case. Moreover, the Emax in test [1] and in test [2] was more than 100% throughout. Moreover, the inhibition at 0.1 µM in test [3] amounted to 73%.

Consider `CN(C)C(=O)[C@H]1CCN(c2c(F)cc3[nH]c(-c4cc(C#N)ncc4Cl)cc(=O)c3c2F)C1` [Example 26, (S)-1-(2-(5-chloro-2-cyanopyridin-4-yl)-5,7-difluoro-4-oxo-1,4-dihydroquinolin-6-yl)-N,N-dimethylpyrrolidine-3-carboxamide], for which the EC50 in test [1] and in test [2] was less than 10 nM throughout. The Emax in test [1] and in test [2] was more than 100% throughout. Also, the inhibition at 0.1 µM in test [3] was 85%.

In the case of `CN1CCN(c2c(F)cc3[nH]c(-c4nc(C#N)ccc4Cl)cc(=O)c3c2F)CC1` [Example 13, 5-chloro-6-(5,7-difluoro-6-(4-methylpiperazin-1-yl)-4-oxo-1,4-dihydroquinolin-2-yl)picolinonitrile], the 50% effective concentration (EC50) in test [1] and in test [2] was 10 to 100 nM throughout. For the same compound, the Emax in test [1] and in test [2] was more than 100% throughout. Besides, the inhibition at 0.1 µM in test [3] was 78%.

In the case of `CN(C)C(=O)[C@H]1CCCN(c2c(F)cc3[nH]c(-c4cc(C#N)ncc4Cl)cc(=O)c3c2F)C1` [Example 23, (S)-1-(2-(5-chloro-2-cyanopyridin-4-yl)-5,7-difluoro-4-oxo-1,4-dihydroquinolin-6-yl)-N,N-dimethylpiperidine-3-carboxamide], in test [1], the EC50 was less than 10 nM and the Emax is more than 100%. In test [2], the Emax is more than 100% and the EC50 was less than 10 nM. Further, the inhibition at 0.1 µM in test [3] turned out to be 76%.

For the compound `N#Cc1ccc(Cl)c(-c2cc(=O)c3c(F)cc(F)cc3[nH]2)n1` [Example 3, 5-chloro-6-(5,7-difluoro-4-oxo-1,4-dihydroquinolin-2-yl)picolinonitrile], the results for the EC50 in test [1], in test [2] and in test [3] were less than 10 nM, less than 10 nM and 0.09 nM, respectively. Moreover, the Emax in test [1] and in test [2] was more than 100% throughout. In addition, the inhibition at 0.1 µM in test [3] turned out to be 95%.

`N#Cc1ccc(Cl)c(-c2cc(=O)c3ccccc3[nH]2)n1` [Example 5, 5-chloro-6-(4-oxo-1,4-dihydroquinolin-2-yl)picolinonitrile]: in test [1], the EC50 lay in the range of 10 to 100 nM and the Emax is more than 100%. For the same compound, in test [2], the Emax was less than 100% and the EC50 was 10 to 100 nM. Moreover, in test [3], the inhibition at 0.1 µM is 71%.

`CN1CCN(c2c(F)cc3[nH]c(-c4cc(C#N)ncc4Cl)cc(=O)c3c2F)CC1=O` [Example 24, 5-chloro-4-(5,7-difluoro-6-(4-methyl-3-oxopiperazin-1-yl)-4-oxo-1,4-dihydroquinolin-2-yl)picolinonitrile]: in test [1], the EC50 was in the range of 10 to 100 nM and the Emax was more than 100%. Moreover, in test [2], the Emax is more than 100% and the EC50 fell in the range of 10 to 100 nM. Further, the inhibition at 0.1 µM in test [3] was 87%.

Consider `CN(C)C(=O)[C@@H]1CCN(c2c(F)cc3[nH]c(-c4cc(C#N)ncc4Cl)cc(=O)c3c2F)C1` [Example 25, (R)-1-(2-(5-chloro-2-cyanopyridin-4-yl)-5,7-difluoro-4-oxo-1,4-dihydroquinolin-6-yl)-N,N-dimethylpyrrolidine-3-carboxamide], for which the EC50 in test [1] and in test [2] was less than 10 nM each time. Moreover, the Emax in test [1] and in test [2] was more than 100% in each case. Besides, in test [3], the inhibition at 0.1 µM came out at 86%.

Regarding `CN(C)C(=O)C1CCN(c2c(F)cc3[nH]c(-c4cc(C#N)ncc4Cl)cc(=O)c3c2F)CC1` [Example 19, 1-(2-(5-chloro-2-cyanopyridin-4-yl)-5,7-difluoro-4-oxo-1,4-dihydroquinolin-6-yl)-N,N-dimethylpiperidine-4-carboxamide], the EC50 in test [1] and in test [2] was 10 to 100 nM in each case. Also, the Emax in test [1] and in test [2] was more than 100% in each case. Also, the inhibition at 0.1 µM in test [3] came out at 84%.

Take `CCSc1cnc(C#N)cc1-c1cc(=O)c2c(F)cc(F)cc2[nH]1` [Example 12, 4-(5,7-difluoro-4-oxo-1,4-dihydroquinolin-2-yl)-5-(ethylthio)picolinonitrile]: in test [1], the EC50 was more than 10000 nM and the Emax is less than 100%. In addition, in test [2], the Emax is less than 100% and the EC50 was more than 10000 nM. For the same compound, in test [3], the inhibition at 0.1 µM was determined as 18%.

For the compound `COc1ccc(C#N)nc1-c1cc(=O)c2c(F)cc(F)cc2[nH]1` [Example 7, 6-(5,7-difluoro-4-oxo-1,4-dihydroquinolin-2-yl)-5-methoxypicolinonitrile], in test [1], the EC50 is more than 10000 nM and the Emax is more than 100%. Also, in test [2], the Emax is more than 100% and the EC50 is more than 10000 nM. The inhibition at 0.1 µM in test [3] came out at 23%.

For `CS(=O)(=O)c1cnc(C#N)cc1-c1cc(=O)c2c(F)cc(F)cc2[nH]1` [Example 29, 4-(5,7-difluoro-4-oxo-1,4-dihydroquinolin-2-yl)-5-(methylsulfonyl)picolinonitrile], in test [3], the midpoint of the response, the EC50, lay at 0.49 nM and the inhibition at 0.1 µM turned out to be 90%.

Regarding `N#Cc1cc(-c2cc(=O)c3c(F)c(N4CCS(=O)(=O)CC4)c(F)cc3[nH]2)c(Cl)cn1` [Example 18, 5-chloro-4-(6-(1,1-dioxidothiomorpholino)-5,7-difluoro-4-oxo-1,4-dihydroquinolin-2-yl)picolinonitrile], the 50% effective concentration (EC50) in test [1] and in test [2] was 10 to 100 nM in each case. For the same compound, the Emax in test [1] and in test [2] was more than 100% throughout. Further, the inhibition at 0.1 µM in test [3] turned out to be 57%.

For the compound `CSc1ccc(C#N)nc1-c1cc(=O)c2c(F)cc(F)cc2[nH]1` [Example 8, 6-(5,7-difluoro-4-oxo-1,4-dihydroquinolin-2-yl)-5-(methylthio)picolinonitrile], in test [1], the EC50 was more than 10000 nM and the Emax is more than 100%. In test [2], the Emax is more than 100% and the EC50 was more than 10000 nM.
